{"source": "patent US20240092741A1", "about": "“COMPOSITION FOR PREVENTION OR TREATMENT OF NEUROFIBROMATOSIS TYPE 2 SYNDROME” (PRG S&TECH INC., priority 2021, published 2024)", "key": {"RKIP": {"tested_on": "RKIP", "assay": "Immunoblotting of transfected wild-type and mutant RKIP", "type": "cell-based", "conditions": "10 μM, 24 h (FIG. 8E)", "experimental": "pCMV RKIP-HA was provided by Keum G (David Geffen School of Medicine at University of California, Los Angeles, CA, USA). pCMV RKIP-T101A-HA and pCMV RKIP-T101D-HA were generated by Dr. J. H. Hwang (Pusan National University). pcDNA3 NF2-FLAG, pRK5 TGF beta type 1 receptor-FLAG, and TGF beta type 2 receptor-HA were obtained from Addgene (Cambridge, MA, USA). Transfection was performed using the Jetpei transfection agent (Polyplus New York, USA) for mammalian expression of these vectors.\nIn other words, cells were seeded at a density of 2×10^5 cells/well in 12-well plates and cultured overnight before transfection. The vector (1.5 μg) was mixed with 1.5 μl of Jetpei reagent dissolved in 150 mM NaCl solution. The mixture was reacted at room temperature for 15 minutes, and then added to the cells. After 3 hours, the serum-free medium 15 was replaced with medium supplemented with 10% FBS.\nCells were harvested and lysed using RIPA buffer [50 mM Tris-Cl, pH 7.5, 150 mM NaCl, 1% NP-40, 0.1% SDS, and 10% sodium deoxycholate] to examine cellular signaling. Protein concentrations in samples were measured using Bio-Rad (Hercules, CA, USA) protein assay kits and BSA standards. […] The blots were detected using an HRP-conjugated secondary antibody using ECL kit (Intron, Seoul, Korea)."}, "mouse schwannoma cells": {"tested_on": "mouse schwannoma cells", "assay": "Tumorsphere formation assay, mouse schwannoma cells", "type": "cell-based", "conditions": "10 μM", "experimental": "(§1) For tumorsphere formation assay, Hei-193 or mouse schwannoma cells (3×10^6 cells/plate) were cultured in DMEM/F12 medium (supplemented with 2% B27 and 40 ng/ml bFGF) and added with the indicated chemicals on non-coated plates for indicated days."}, "[1]": {"assay": "High-dose toxicity in normal mice (body weight)", "type": "in vivo"}, "HEI-193 cells [2]": {"tested_on": "HEI-193 cells", "assay": "RT-PCR gene expression in HEI-193 cells", "type": "cell-based, human", "experimental": "For RT-PCR, total cellular RNA was extracted using an RNA extraction kit (Qiagen). Gene expression analysis was performed using cDNA synthesized from total RNA with MMLV RT (Invitrogen, Carlsbad, USA) and random hexamer. PCR from genomic DNA was performed using DiaStar Taq DNA polymerase (SolGent, Daejeon, Korea), and gene expression analysis was performed using the following specific primers: […]"}, "HEI-193 cells [3]": {"tested_on": "HEI-193 cells", "assay": "Cell-cycle analysis by FACS in HEI-193 cells", "type": "cell-based, human", "conditions": "10 μM, 4 days (FIGS. 12A, 13A)", "experimental": "[…] After 4 days, the cells were fixed with 70% ethanol and labeled with propidium iodine. These samples were analyzed by FACS for cell-cycle analysis. After 7 days of treatment with DMSO (control group), PRG-N-01, or TEW7197 at the indicated concentration, the cells were fixed with 4% paraformaldehyde and then stained with indicated antibody. A minimum of 10,000 cells were analyzed using an Attune NxT Flow cytometer (Thermo Fisher Scientific, Inc., Rockford, IL, USA)."}, "HEI-193 cells [4]": {"tested_on": "HEI-193 cells", "assay": "Tumorsphere formation assay, HEI-193 cells", "type": "cell-based, human", "conditions": "10 μM", "experimental": "as §1"}, "HEI-193 cells [5]": {"tested_on": "HEI-193 cells", "assay": "Microarray gene expression profile of HEI-193 cells", "type": "cell-based, human", "conditions": "PRG-N-01-treated HEI-193 cells vs control", "experimental": "Total RNA (500 ng) was extracted using an RNAeasy kit (Qiagen). RNA labeling, hybridization on Human Gene 1.0 ST array (Affymetrix), and data analysis were performed using DNA Link (Seoul, Korea). Genes showing at least a 2-fold difference in each cell line were selected for further analysis."}, "HEI-193 cells [6]": {"tested_on": "HEI-193 cells", "assay": "FACS analysis and IF staining of schwann cell markers in HEI-193 cells", "type": "cell-based, human", "conditions": "7 days, compared with TEW7197 (FIG. 12F)", "experimental": "Cells were seeded on cover glass, washed with PBS, fixed with 4% paraformaldehyde (PFA) for 30 minutes at room temperature, and then permeabilized with 0.2% Triton X-100 at room temperature for 5 minutes. After treatment with blocking buffer [3% goat serum diluted in PBS] for 1 hour, cells were reacted with the specified antibody in the blocking buffer overnight at 4° C. Finally, the cells were reacted with secondary antibodies conjugated with FITC or rhodamine at 4° C. for 7 hours. The nuclei were stained with DAPI at room temperature for 10 minutes. After the cells were washed 3 times with PBS, the cover glass was mounted with a mounting solution (H-5501, Vector Laboratories, Cambridgeshire, UK) and immunofluorescence signals were detected using a fluorescence microscopy (Zeiss, Jena, Germany). In addition, for flow cytometry, cells were seeded in a 6-well plate and reacted with DMSO (control group), PRG-N-01 (5 μM), or TEW7197 (5 μM), respectively. After 4 days, the cells were fixed with 70% ethanol and labeled with propidium iodine. These samples were analyzed by FACS for cell-cycle analysis. […] A minimum of 10,000 cells were analyzed using an Attune NxT Flow cytometer (Thermo Fisher Scientific, Inc., Rockford, IL, USA)."}, "[7]": {"conditions": "tumorspheres, 10th day, immunoblotting (FIGS. 15B, 14E)"}}}
{"smiles": "CCN(CC)CCOc1ccc(-c2nnn(Cc3ccc(OC)cc3)c2N)cc1", "note": "[PRG-N-01, 4-(4-(2-(diethylamino)ethoxy)phenyl)-1-(4-methoxybenzyl)-1H-1,2,3-triazol-5-amino]", "values": [{"measurement": "wild-type RKIP expression", "setting": "RKIP; HEI-193 and mouse schwannoma cells transfected with WT RKIP", "value": "induced wild-type RKIP expression"}, {"measurement": "expression of RKIP mutants (T101A stable form, T101D unstable form)", "setting": "RKIP; HEI-193 and mouse schwannoma cells transfected with mutants", "value": "did not alter the expression"}, {"measurement": "tumorsphere size and number", "setting": "mouse schwannoma cells; 10th day", "value": "reduced the tumorsphere size as well as the number of tumorsphere"}, {"measurement": "tumorsphere formation", "setting": "mouse schwannoma cells; DMEM/F12 medium", "value": "obviously inhibited tumorsphere formation"}, {"measurement": "body weight", "setting": "[1]; 200 mg/kg intraperitoneally (FIG. 18B)", "value": "did not change the body weight"}, {"measurement": "toxicity", "setting": "[1]; 200 mg/kg, 10 times the therapeutic dose", "value": "did not cause severe toxicity"}, {"measurement": "expression of cell cycle-related genes (CDK1, CDK4, CCNB1, PLK4)", "setting": "HEI-193 cells [2]; RT-PCR (FIG. 12D)", "value": "decreased"}, {"measurement": "expression of schwann cell markers (PLP, MBP, GFAP MPZ, PMP22, SOX10)", "setting": "HEI-193 cells [2]; RT-PCR (FIGS. 12D, 13C)", "value": "increased"}, {"measurement": "cell cycle", "setting": "HEI-193 cells [3]", "value": "cell cycle arrest was induced at the G1 phase"}, {"measurement": "tumorsphere size and number", "setting": "HEI-193 cells [4]; HEI-193 cells, 10th day", "value": "reduced the tumorsphere size as well as the number of tumorsphere"}, {"measurement": "tumorsphere formation", "setting": "HEI-193 cells [4]; HEI-193 cells, DMEM/F12 medium", "value": "obviously inhibited tumorsphere formation"}, {"measurement": "SOX10 expression in tumorspheres", "setting": "HEI-193 cells [4]; [7]", "value": "obviously increased"}, {"measurement": "expression of stem cell factors (SOX2, c-Myc, Nanog, Oct4) in tumorspheres", "setting": "HEI-193 cells [4]; [7]", "value": "downregulated to undetectable levels"}, {"measurement": "Log2Ratio, gene FABP3 (fatty acid binding protein 3, muscle and heart)", "setting": "HEI-193 cells [5]", "value": "−2.272"}, {"measurement": "Log2Ratio, gene HIST1H1B", "setting": "HEI-193 cells [5]", "value": "−2.475"}, {"measurement": "Log2Ratio, gene MEST", "setting": "HEI-193 cells [5]", "value": "−1.95"}, {"measurement": "Log2Ratio, gene MMP1", "setting": "HEI-193 cells [5]", "value": 2.163}, {"measurement": "Log2Ratio, gene MSMO1", "setting": "HEI-193 cells [5]", "value": "−1.988"}, {"measurement": "Log2Ratio, gene OLFML3", "setting": "HEI-193 cells [5]", "value": "−2.099"}, {"measurement": "Log2Ratio, gene PBK", "setting": "HEI-193 cells [5]", "value": "−1.976"}, {"measurement": "Log2Ratio, gene PLK1 (polo-like kinase 1)", "setting": "HEI-193 cells [5]", "value": "−2.041"}, {"measurement": "Log2Ratio, gene PRR11", "setting": "HEI-193 cells [5]", "value": "−2.207"}, {"measurement": "Log2Ratio, gene TOP2A", "setting": "HEI-193 cells [5]", "value": "−1.931"}, {"measurement": "cell-cycle-related genes (PLK1, CENPE) expression", "setting": "HEI-193 cells [5]", "value": "downregulated"}, {"measurement": "lipid metabolism-related genes (PNILPRP3, NR4A2, ABCA1) expression", "setting": "HEI-193 cells [5]", "value": "strikingly upregulated"}, {"measurement": "tenascin C gene expression (readout of canonical TGF-β signaling)", "setting": "HEI-193 cells [5]", "value": "considerably upregulated"}, {"measurement": "schwann cell markers (FACS analysis)", "setting": "HEI-193 cells [6]", "value": "clearly increased schwann cell markers compared to TEW7197"}]}
